Reference: ChEMBL document CHEMBL4400510, “Synthesis and antitubercular evaluation of reduced lipophilic imidazo[1,2-a]pyridine-3-carboxamide derivatives” (Eur J Med Chem, 2019)
In brackets after ≈: the same amount, converted by molar mass.

Experiments:
[1] = system: Mycobacterium tuberculosis; assay: Antitubercular activity against Mycobacterium tuberculosis H37Rv after 7 days by MABA method; type: functional; conditions: 168 h
[2] = Cytotoxicity against African green monkey Vero cells measured after 72 hrs by MTT assay; type: cell-based; conditions: chlorocebus sabaeus
[3] = Aqueous solubility of the compound in 0.01 M HCl at pH 2 after 12 hrs by UV-based HPLC analysis; type: physicochemical
[4] = AUC (0 to infinity) in ICR mouse at 25 mg/kg, po by HPLC analysis; type: ADME, organism-based; parameters: dose 25 mg/kg, route oral, time infinity; conditions: in vivo
[5] = Cmax in ICR mouse at 25 mg/kg, po by HPLC analysis; type: ADME, organism-based; parameters: dose 25 mg/kg, route oral; conditions: in vivo
[6] = Tmax in ICR mouse at 25 mg/kg, po by HPLC analysis; type: ADME, organism-based; conditions: in vivo
[7] = Half life in ICR mouse at 25 mg/kg, po by HPLC analysis; type: ADME, organism-based; conditions: in vivo

Compound | MIC90 [1] | CC50 at 72 h [2] | solubility at 12 h [3] | AUC(0-inf) [4] | Cmax [5] | Tmax [6] | half-life [7]
CCc1nc2ccc(Cl)cn2c1C(=O)NCc1ccc(N2CCN(Cc3ccc(OC(F)(F)F)cc3)CC2)cc1 | < 0.035 µM |  |  |  |  |  | 
CCc1nc2ccc(Cl)cn2c1C(=O)NCc1ccc(N2CC3CN(CC4CCCCC4)CC3C2)cc1 (configuration not stated) | < 0.035 µM | > 100 µM | 628 µg/mL (≈ 1210 µM) | 9050 ng·h/mL | 4180 ng/mL | 0.25 h | 4.27 h
CCc1nc2ccc(Cl)cn2c1C(=O)NCc1ccc(N2CC3CN(c4ccc(OC(F)(F)F)cc4)CC3C2)cc1 (configuration not stated) | 0.058 µM (≈ 0.0339 µg/mL) |  |  |  |  |  | 
CCc1nc2ccc(Cl)cn2c1C(=O)NCc1ccc(N2CC3CN(Cc4ccc(OC(F)(F)F)cc4)CC3C2)cc1 (configuration not stated) | < 0.035 µM | 20.5 µM | 1130 µg/mL (≈ 1880 µM) | 19800 ng·h/mL | 2670 ng/mL | 0.83 h | 5.23 h
CCc1nc2ccc(Cl)cn2c1C(=O)NCc1ccc(N2CCC3(CC2)CCN(c2ccc(OC(F)(F)F)cc2)CC3)cc1 | < 0.035 µM | 70.2 µM | 1110 µg/mL (≈ 1770 µM) | 153000 ng·h/mL | 7420 ng/mL | 2.67 h | 12.3 h
CCc1nc2ccc(Cl)cn2c1C(=O)NCc1ccc(N2CC3CCC2CN3CC2CCCCC2)cc1 (configuration not stated) | 0.062 µM (≈ 0.0322 µg/mL) |  |  |  |  |  | 
CCc1nc2ccc(Cl)cn2c1C(=O)NCc1ccc(N2CCN(CCC3CCCCC3)CC2)cc1 | 0.103 µM (≈ 0.0523 µg/mL) |  |  |  |  |  | 
CCc1nc2ccc(Cl)cn2c1C(=O)NCc1ccc(N2CCN(CC3CCCCC3)CC2)cc1 | < 0.035 µM | 53.5 µM | 1230 µg/mL (≈ 2500 µM) | 53800 ng·h/mL | 24100 ng/mL | 0.25 h | 2.75 h
CCc1nc2cc(Cl)ccn2c1C(=O)NCc1ccc(N2CC3CC2CN3CC2CCCCC2)cc1 (configuration not stated) | 1.27 µM (≈ 0.641 µg/mL) |  |  |  |  |  | 
CCc1nc2cc(Cl)ccn2c1C(=O)NCc1ccc(N2CC3CCC2CN3CC2CCCCC2)cc1 (configuration not stated) | 1.48 µM (≈ 0.769 µg/mL) |  |  |  |  |  | 
CCc1nc2cc(Cl)ccn2c1C(=O)NCc1ccc(N2CCN(CCC3CCCCC3)CC2)cc1 | 1.59 µM (≈ 0.81 µg/mL) |  |  |  |  |  | 
CCc1nc2cc(Cl)ccn2c1C(=O)NCc1ccc(N2CCN(CC3CCCCC3)CC2)cc1 | 0.84 µM (≈ 0.415 µg/mL) |  |  |  |  |  | 
CCc1nc2ccc(Cl)cn2c1C(=O)NCc1ccc(N2CC3CC2CN3CC2CCCCC2)cc1 (configuration not stated) | 0.452 µM (≈ 0.229 µg/mL) |  |  |  |  |  | 
NNC(=O)c1ccncc1 [ISONIAZID] | 0.277 µM (≈ 0.038 µg/mL) |  |  |  |  |  | 
O=c1nc(N2CCN(CC3CCCCC3)CC2)sc2c([N+](=O)[O-])cc(C(F)(F)F)cc12 [MACOZINONE] | < 0.035 µM |  |  |  |  |  | 
CO[C@H]1/C=C/O[C@@]2(C)Oc3c(C)c(O)c4c(O)c(c(/C=N/N5CCN(C)CC5)c(O)c4c3C2=O)NC(=O)/C(C)=C\C=C\[C@H](C)[C@H](O)[C@@H](C)[C@@H](O)[C@@H](C)[C@H](OC(C)=O)[C@@H]1C [RIFAMPIN] | 0.038 µM (≈ 0.0313 µg/mL) |  |  |  |  |  | 
CCc1nc2ccc(Cl)cn2c1C(=O)NCc1ccc(N2CCC(c3ccc(OC(F)(F)F)cc3)CC2)cc1 [TELACEBEC] | < 0.035 µM | > 100 µM |  |  |  |  | 
